In one data set the test system is Ehrlich acites carcinoma. In words: Growth-inhibiting effect against Ehrlich acites carcinoma. Type of data set: in vivo, male mice. As to conditions: Mus musculus, Ehrlich, 120 h, 5 days; for response vs control in vivo at 50 mg/kg: 50 mg/kg/day ip; for response vs control in vivo at 200 mg/kg: 200 mg/kg/day ip; for response vs control in vivo at 25 mg/kg: 25 mg/kg/day ip; for response vs control in vivo at 100 mg/kg: 100 mg/kg/day ip. The method, then:
Ehrlich acites carcinoma (1×10^7 cells) was implantated into the abdominal cavities of a 6-membered group of male mice. Test compounds (solutions or suspensions in 1% Nikohl HCO-60) were each intraperioneally administered once a day 5 successive days to the mice 24 hrs. after the implantation. Total packed cell volumes [TPCV, namely, total packed volumes of Acites carcinoma] were determined 7 days after the implantation to calculate growth ratio of tumor [T/C%; T: packed volume of Acites carcinoma in treated groups, C: packed volume of Acites carcinoma in an untreated group]. Acitivity is represented by - when T/C% is 100-66, by + when T/C% 65-41, by ++ when T/C% 40-11, and by +++ when T/C% 10-0.

Another data set relates to Leukemia L1210. In words: Activity against Leukemia L1210, intraperitoneal, increase in life span of mice. The class given is in vivo, female mice (BDF1 family). As to conditions: for ED (maximum ILS) / ED30: Mus musculus, L1210, ip; for ED (maximum ILS) / ED30 / O.D. (optimum dosage) / ILS30: ip once a day for 5 successive days; for ED (maximum ILS) / O.D. (optimum dosage): daily dosage giving maximum increase of life span; for ED (maximum ILS): read-out: O.D. (optimum dosage); for ED30 / ILS30: daily dosage increasing average survival days by 30%; for ED30: read-out: ILS30; for Survivors after 60 days / Max. ILS % / Therapeutic ratio TR: ip; for Survivors after 60 days: 6-membered group; for Max. ILS %: 60-day observation, versus control; for Therapeutic ratio TR: O.D./ILS30. Summed up:
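Dosing started 24 h after ip implantation of 1×10^5 L1210 cells into groups of 6 female BDF1 mice, by ip or oral route daily for 5 consecutive days. Survival was followed for 60 days; increase in life span was scored against untreated mice, with therapeutic ratio from optimum dose over ILS30 dose.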

Data set [1] is described as follows: Acute toxicity (LD50, Behrens-Karber method). The class given is in vivo, ICR mice. As to conditions: ip, mortality during 30 days; for LD50 at 720 h: mouse, in vivo; for LD50: 43200 min. The method, then:
Test compounds, dissolved or suspended in 0.5% aqueous CMC, were each intraperitoneally administered to ICR mice in a dose of 0.1 ml per 10 g body weight. LD50 (mg/kg) value of each test compound was calculated from the mortality of mice during 30 days by the Behrens-Karber method.

Like-named read-outs stand apart in the source and are kept apart here. Bounds are passed on as bounds.

For `CCCCO[C@H]1O[C@H](CN(C)C(=O)N(CCCl)N=O)[C@@H](O)[C@H](O)[C@H]1O` [Compound 3, 3-methyl-3-(n-butylα-D-glucopyranose-6-yl)-1-(2-chloroethyl)-1-nitrosourea], in the data set with Ehrlich acites carcinoma (read-out: Activity), the response vs control in vivo at 50 mg/kg fell in the range of 11 to 40% and the response vs control in vivo at 200 mg/kg was in the range of 0 to 10%. In the data set with Ehrlich acites carcinoma (read-out: T/C %), the response vs control in vivo at 50 mg/kg was 22.4% and the response vs control in vivo at 200 mg/kg is 0%. In the data set on Leukemia L1210, the ED (maximum ILS) was 90 mg/kg, the ED30 was 2.7 mg/kg, the “Survivors after 60 days” value was 6/6 and the “Max. ILS %” value is more than 700%. Besides, the “Therapeutic ratio TR” value in the data set with Leukemia L1210 worked out at 33.3. The compound also yielded a 50% lethal dose (LD50) at 720 h in data set [1] of 260 mg/kg.

Turning to `CCCCO[C@H]1O[C@H](CN(CCOCCO)C(=O)N(CCCl)N=O)[C@@H](O)[C@H](O)[C@H]1O` [Compound 12, 3-[2-(2-hydroxyethoxy)ethyl]-3-(n-butyl α-D-glucopyranose-6-yl)-1-(2-chloroethyl)-1-nitrosourea], in the data set with Ehrlich acites carcinoma (read-out: Activity), the response vs control in vivo at 25 mg/kg was in the range of 0 to 10% and the response vs control in vivo at 100 mg/kg was in the range of 0 to 10%. In the data set on Ehrlich acites carcinoma (read-out: T/C %), the response vs control in vivo at 25 mg/kg was found to be 0% and the response vs control in vivo at 100 mg/kg came out at 0%. In addition, in the data set on Leukemia L1210, the ED (maximum ILS) is 170 mg/kg, the ED30 came to 2.85 mg/kg, the “Survivors after 60 days” value is given as 6/6 and the “Max. ILS %” value is on record as more than 700%. In the data set with Leukemia L1210, the “Therapeutic ratio TR” value was found to be 59.6. The compound further came in with a median lethal dose (LD50) at 720 h in data set [1] of 505 mg/kg.

Turning to `CCC(C)O[C@H]1O[C@H](CN(C(=O)N(CCCl)N=O)C(C)CO)[C@@H](O)[C@H](O)[C@H]1O` (stereo partly drawn) [Compound 20, 3-(2-hydroxy-1-methylethyl)-3-(sec-butyl α-D-glucopyranose-6-yl)-1-(2-chloroethyl)-1-nitrosourea], in the data set with Ehrlich acites carcinoma (read-out: Activity), the response vs control in vivo at 25 mg/kg is 0 to 10% and the response vs control in vivo at 100 mg/kg lay in the range of 0 to 10%. Moreover, in the data set on Ehrlich acites carcinoma (read-out: T/C %), the response vs control in vivo at 25 mg/kg is 0% and the response vs control in vivo at 100 mg/kg was determined as 0%. In addition, in the data set on Leukemia L1210, the ED (maximum ILS) came out at 170 mg/kg, the ED30 came to 3.92 mg/kg, the “Survivors after 60 days” value is recorded as 4/6 and the “Max. ILS %” value is recorded as more than 430%. For the same compound, in the data set with Leukemia L1210, the “Therapeutic ratio TR” value was 43.4. For the same compound, the median lethal dose (LD50) at 720 h in data set [1] was determined as 560 mg/kg.

As for `CCCCN(C[C@H]1O[C@H](OCCCOC)[C@H](O)[C@@H](O)[C@@H]1O)C(=O)N(CCCl)N=O` [Compound 30, 3-n-butyl-3-(3-methoxy-n-propyl-α-D-glucopyranose-6-yl)-1-(2-chloroethyl)-1-nitrosourea], in the data set on Ehrlich acites carcinoma (read-out: Activity), the response vs control in vivo at 25 mg/kg fell in the range of 0 to 10% and the response vs control in vivo at 100 mg/kg lay within 0 to 10%. Besides, in the data set on Ehrlich acites carcinoma (read-out: T/C %), the response vs control in vivo at 25 mg/kg is 0% and the response vs control in vivo at 100 mg/kg stood at 0%. In addition, in the data set with Leukemia L1210, the ED (maximum ILS) stood at 150 mg/kg, the ED30 stood at 2.61 mg/kg, the “Survivors after 60 days” value was 6/6 and the “Max. ILS %” value is on record as more than 700%. Moreover, the “Therapeutic ratio TR” value with Leukemia L1210 is on record as 57.5. For the same compound, the LD50 at 720 h in data set [1] was determined as 450 mg/kg.

On to `CC(C)CO[C@@H]1O[C@H](CN(CCC(C)(C)C)C(=O)N(CCCl)N=O)[C@@H](O)[C@H](O)[C@H]1O` [Compound 189, 3-(3,3-dimethyl-n-butyl)-2-(isobutyl β-D-glucopyranose-6-yl)-1-(2-chloroethyl)-1-nitrosourea], for which, in the data set with Leukemia L1210, the ED (maximum ILS) was 150 mg/kg, the ED30 stood at 3.1 mg/kg, the “Survivors after 60 days” value is recorded as 6/6 and the “Max. ILS %” value is on record as more than 700%. Further, the “Therapeutic ratio TR” value in the data set on Leukemia L1210 came out at 48.4. The median lethal dose (LD50) at 720 h in data set [1] was determined as 480 mg/kg.

For `CCC(C)O[C@H]1O[C@H](CN(CCC(C)(C)C)C(=O)N(CCCl)N=O)[C@@H](O)[C@H](O)[C@H]1O` (stereo partly drawn) [Compound 190, 3-(3,3-dimethyl-n-butyl)-3-(sec-butyl α-D-glucopyranose-6-yl)-1-(2-chloroethyl)-1-nitrosourea], in the data set on Leukemia L1210, the ED (maximum ILS) was 150 mg/kg, the ED30 was found to be 3.12 mg/kg, the “Survivors after 60 days” value was 6/6 and the “Max. ILS %” value is more than 700%. In the data set with Leukemia L1210, the “Therapeutic ratio TR” value was 48.1. This compound came in with an LD50 at 720 h in data set [1] of 470 mg/kg.

As to `CCCC(OC)O[C@H]1O[C@H](CN(CCC(C)(C)C)C(=O)N(CCCl)N=O)[C@@H](O)[C@H](O)[C@H]1O` (stereo partly drawn) [Compound 191, 3-(3,3-dimethyl-n-butyl)-3-(1-methoxy-n-butyl α-D-glucopyranose-6-yl)-1-(2-chloroethyl)-1-nitrosourea], in the data set with Leukemia L1210, the ED (maximum ILS) came to 160 mg/kg, the ED30 came to 2.64 mg/kg, the “Survivors after 60 days” value is 6/6 and the “Max. ILS %” value is recorded as more than 700%. The “Therapeutic ratio TR” value in the data set on Leukemia L1210 turned out to be 60.6. The same compound registered an LD50 at 720 h in data set [1] of 560 mg/kg.

On to `CC(C)(C)CN(C[C@H]1O[C@H](OCC2CCCO2)[C@H](O)[C@@H](O)[C@@H]1O)C(=O)N(CCCl)N=O` (stereo partly drawn) [Compound 194, 3-neopentyl-3-(tetrahydrofurfuryl α-D-glucopyranose-6-yl)-1-(2-chloroethyl)-1-nitrosourea], for which, in the data set on Leukemia L1210, the “O.D. (optimum dosage)” value amounted to 160 mg/kg, the ILS30 is 2.56 mg/kg, the “Survivors after 60 days” value was 6/6 and the “Max. ILS %” value is listed as more than 700%. In the data set with Leukemia L1210, the “Therapeutic ratio TR” value came out at 62.6. This compound also displayed a 50% lethal dose (LD50) in data set [1] of 560 mg/kg.

For `CCC(COC)O[C@H]1O[C@H](CN(CC(C)(C)C)C(=O)N(CCCl)N=O)[C@@H](O)[C@H](O)[C@H]1O` (stereo partly drawn) [Compound 196, 3-neopentyl-3-(1-methoxy-sec-butyl α-D-glucopyranose-6-yl)-1-(2-chloroethyl)-1-nitrosourea], in the data set with Leukemia L1210, the “O.D. (optimum dosage)” value turned out to be 160 mg/kg, the ILS30 is on record as 2.52 mg/kg, the “Survivors after 60 days” value is reported as 6/6 and the “Max. ILS %” value is more than 700%. Also, in the data set with Leukemia L1210, the “Therapeutic ratio TR” value is listed as 63.4. Moreover, the LD50 in data set [1] came to 560 mg/kg.

With `CC(C)CN(C[C@H]1O[C@@H](OCCN2CCOCC2)[C@H](O)[C@@H](O)[C@@H]1O)C(=O)N(CCCl)N=O` [Compound 199, 3-isobutyl-3-(2-morpholinoethyl β-D-glucopyranose-6-yl)-1-(2-chloroethyl)-1-nitrosourea], in the data set on Leukemia L1210, the ED (maximum ILS) was found to be 160 mg/kg, the ED30 came to 3.2 mg/kg, the “Survivors after 60 days” value is listed as 6/6 and the “Max. ILS %” value is more than 700%. Also, the “Therapeutic ratio TR” value with Leukemia L1210 is listed as 50.0. Moreover, the LD50 at 720 h in data set [1] worked out at 520 mg/kg.

Regarding `CC(C)(C)N(C[C@H]1O[C@H](OC(c2ccccc2)C2CC2)[C@H](O)[C@@H](O)[C@@H]1O)C(=O)N(CCCl)N=O` (stereo partly drawn) [Compound 201, 3-tert-butyl-3-(α-cyclopropylbenzyl α-D-glucopyranose-6-yl)-1-(2-chloroethyl)-1-nitrosourea], in the data set with Leukemia L1210, the ED (maximum ILS) worked out at 150 mg/kg, the ED30 is 4.78 mg/kg, the “Survivors after 60 days” value is given as 6/6 and the “Max. ILS %” value was more than 700%. Besides, in the data set on Leukemia L1210, the “Therapeutic ratio TR” value was determined as 31.4. In addition, the LD50 at 720 h in data set [1] came to 460 mg/kg.

`CO[C@H]1O[C@H](CO)[C@@H](O)[C@H](NC(=O)N(CCCl)N=O)[C@H]1O` [KCNUM, 3-(methyl α-D-glucopyranose-3-yl)-1-(2-chloroethyl)-1-nitrosourea, reference compound]: in the data set on Leukemia L1210, the ED (maximum ILS) is 25.4 mg/kg, the ED30 amounted to 1.38 mg/kg, the “Survivors after 60 days” value is on record as 4/6 and the “Max. ILS %” value is more than 425%. Besides, the “Therapeutic ratio TR” value with Leukemia L1210 was 18.4. In data set [1], this compound showed an LD50 at 720 h of 130 mg/kg.

The LD50 is the dose at which mortality reaches 50%. Higher therefore signals lower toxicity.
